The text below walks through data of patent US20070010671A1, “Novel quinazoline derivatives and methods of treatment related to the use thereof” (priority 2003, published 2007).

This assay has as its target MCH receptor (Homo sapiens, UniProt Q99705). The experiment in a line: High throughput functional screening FLIPR/FDSS6000: inhibition of MCH-evoked intracellular Ca2+ changes. The assay is classed as cell-based. Particulars: class by percent of control at 10^-7 M or IC50. An outline of the steps:
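In a kinetic calcium-flux format, compounds were tested at various concentrations against 50 nM MCH. Fluo4-loaded cells expressing a constitutively active, non-endogenous receptor were imaged at 488/530 nm for 290 s after agonist addition.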

With `CN(C)c1nc(N[C@H]2CC[C@@H](CNC(=S)Nc3ccc(F)cc3)CC2)nc2ccccc12` [compound 599], the class is listed as 3 (Class 3: The value of percent of control at 10^−7 M was more than 60% or the value of IC50 was more than 200 nM.).

On to `CCCCCCNC(=S)NC[C@H]1CC[C@@H](Nc2nc(N(C)C)c3ccccc3n2)CC1` [compound 600], for which the class is reported as 3 (Class 3: The value of percent of control at 10^−7 M was more than 60% or the value of IC50 was more than 200 nM.). `CCC[C@H]1CC[C@H](c2ccc(NC(=S)NC[C@H]3CC[C@@H](Nc4nc(N(C)C)c5ccccc5n4)CC3)cc2)CC1` [compound 601]: the class is reported as 3 (Class 3: The value of percent of control at 10^−7 M was more than 60% or the value of IC50 was more than 200 nM.). Take `CC(C)CNC(=S)NC[C@H]1CC[C@@H](Nc2nc(N(C)C)c3ccccc3n2)CC1` [compound 602, N-[(cis-4-{[4-(dimethylamino)quinazolin-2-yl]amino}cyclohexyl)methyl]-N′-isobutylthiourea]: the class is on record as 2 (Class 2: The value of percent of control at 10^−7 M was from 40% to 60% or the value of IC50 was from 50 nM to 200 nM.). `COc1ccc(-c2ccccc2)cc1NC(=S)NC[C@H]1CC[C@@H](Nc2nc(N(C)C)c3ccccc3n2)CC1` [compound 603]: the class is 3 (Class 3: The value of percent of control at 10^−7 M was more than 60% or the value of IC50 was more than 200 nM.). As to `CN(C)c1nc(N[C@H]2CC[C@@H](CNC(=S)NCc3ccc4c(c3)OCO4)CC2)nc2ccccc12` [compound 604], the class is recorded as 2 (Class 2: The value of percent of control at 10^−7 M was from 40% to 60% or the value of IC50 was from 50 nM to 200 nM.). `Cc1cccc(NC(=S)NC[C@H]2CC[C@@H](Nc3nc(N(C)C)c4ccccc4n3)CC2)c1` [compound 605]: the class is reported as 3 (Class 3: The value of percent of control at 10^−7 M was more than 60% or the value of IC50 was more than 200 nM.). In the case of `CSc1ccc(NC(=S)NC[C@H]2CC[C@@H](Nc3nc(N(C)C)c4ccccc4n3)CC2)cc1` [compound 606] it was 3 (Class 3: The value of percent of control at 10^−7 M was more than 60% or the value of IC50 was more than 200 nM.); in that of `COc1ccc(NC(=S)NC[C@H]2CC[C@@H](Nc3nc(N(C)C)c4ccccc4n3)CC2)cc1` [compound 607], 3 (Class 3: The value of percent of control at 10^−7 M was more than 60% or the value of IC50 was more than 200 nM.).

Take `C=C(C)CNC(=S)NC[C@H]1CC[C@@H](Nc2nc(N(C)C)c3ccccc3n2)CC1` [compound 608]: the class is listed as 3 (Class 3: The value of percent of control at 10^−7 M was more than 60% or the value of IC50 was more than 200 nM.). The same measure for `COc1ccccc1NC(=S)NC[C@H]1CC[C@@H](Nc2nc(N(C)C)c3ccccc3n2)CC1` [compound 609]: 3 (Class 3: The value of percent of control at 10^−7 M was more than 60% or the value of IC50 was more than 200 nM.); for `CNC(=S)NC[C@H]1CC[C@@H](Nc2nc(N(C)C)c3ccccc3n2)CC1` [compound 610]: 3 (Class 3: The value of percent of control at 10^−7 M was more than 60% or the value of IC50 was more than 200 nM.).

Turning to `CN(C)c1nc(N[C@H]2CC[C@@H](CNC(=S)Nc3cccc4ccccc34)CC2)nc2ccccc12` [compound 611], the class was 3 (Class 3: The value of percent of control at 10^−7 M was more than 60% or the value of IC50 was more than 200 nM.). On to `CN(C)c1nc(N[C@H]2CC[C@@H](CNC(=S)Nc3cccc([N+](=O)[O-])c3)CC2)nc2ccccc12` [compound 612], for which the class is 3 (Class 3: The value of percent of control at 10^−7 M was more than 60% or the value of IC50 was more than 200 nM.).

As for `CN(C)c1nc(N[C@H]2CC[C@@H](CNC(=S)Nc3ccc([N+](=O)[O-])cc3)CC2)nc2ccccc12` [compound 613, N-[(cis-4-{[4-(dimethylamino)quinazolin-2-yl]amino}cyclohexyl)methyl]-N′-(4-nitrophenyl)thiourea], the class is listed as 2 (Class 2: The value of percent of control at 10^−7 M was from 40% to 60% or the value of IC50 was from 50 nM to 200 nM.). In the case of `CN(C)c1nc(N[C@H]2CC[C@@H](CNC(=S)NC(C)(C)CC(C)(C)C)CC2)nc2ccccc12` [compound 614] it was 3 (Class 3: The value of percent of control at 10^−7 M was more than 60% or the value of IC50 was more than 200 nM.); in that of `CN(C)c1nc(N[C@H]2CC[C@@H](CNC(=S)Nc3ccccc3)CC2)nc2ccccc12` [compound 615], 3 (Class 3: The value of percent of control at 10^−7 M was more than 60% or the value of IC50 was more than 200 nM.). For `CN(C)c1nc(N[C@H]2CC[C@@H](CNC(=S)Nc3c(F)c(F)c(F)c(F)c3F)CC2)nc2ccccc12` [compound 616, N-[(cis-4-{[4-(dimethylamino)quinazolin-2-yl]amino}cyclohexyl)methyl]-N′-(pentafluorophenyl)thiourea], the class is 2 (Class 2: The value of percent of control at 10^−7 M was from 40% to 60% or the value of IC50 was from 50 nM to 200 nM.). In the case of `CCCNC(=S)NC[C@H]1CC[C@@H](Nc2nc(N(C)C)c3ccccc3n2)CC1` [compound 617] it was 3 (Class 3: The value of percent of control at 10^−7 M was more than 60% or the value of IC50 was more than 200 nM.). On to `CN(C)c1nc(N[C@H]2CC[C@@H](CNC(=S)Nc3cccc(C(F)(F)F)c3)CC2)nc2ccccc12` [compound 618], for which the class is on record as 3 (Class 3: The value of percent of control at 10^−7 M was more than 60% or the value of IC50 was more than 200 nM.).

`COc1cc(NC(=S)NC[C@H]2CC[C@@H](Nc3nc(N(C)C)c4ccccc4n3)CC2)cc(OC)c1OC` [compound 619]: the class is listed as 3 (Class 3: The value of percent of control at 10^−7 M was more than 60% or the value of IC50 was more than 200 nM.). Consider `Cc1ccc(NC(=S)NC[C@H]2CC[C@@H](Nc3nc(N(C)C)c4ccccc4n3)CC2)cc1` [compound 621], for which the class was 3 (Class 3: The value of percent of control at 10^−7 M was more than 60% or the value of IC50 was more than 200 nM.).

Turning to `Cc1ccccc1NC(=S)NC[C@H]1CC[C@@H](Nc2nc(N(C)C)c3ccccc3n2)CC1` [compound 622], the class is 3 (Class 3: The value of percent of control at 10^−7 M was more than 60% or the value of IC50 was more than 200 nM.).

Consider `CN(C)c1nc(N[C@H]2CC[C@@H](CNC(=S)NC(C)(C)C)CC2)nc2ccccc12` [compound 623], for which the class is listed as 3 (Class 3: The value of percent of control at 10^−7 M was more than 60% or the value of IC50 was more than 200 nM.). The same measure for `CN(C)c1nc(N[C@H]2CC[C@@H](CNC(=S)Nc3ccccc3Br)CC2)nc2ccccc12` [compound 625]: 3 (Class 3: The value of percent of control at 10^−7 M was more than 60% or the value of IC50 was more than 200 nM.). The same measure for `CN(C)c1nc(N[C@H]2CC[C@@H](CNC(=S)Nc3ccccc3Cl)CC2)nc2ccccc12` [compound 626]: 3 (Class 3: The value of percent of control at 10^−7 M was more than 60% or the value of IC50 was more than 200 nM.). On to `CN(C)c1nc(N[C@H]2CC[C@@H](CNC(=S)NCCc3ccccc3)CC2)nc2ccccc12` [compound 627], for which the class is 3 (Class 3: The value of percent of control at 10^−7 M was more than 60% or the value of IC50 was more than 200 nM.). With `COc1ccc(NC(=S)NC[C@H]2CC[C@@H](Nc3nc(N(C)C)c4ccccc4n3)CC2)cc1OC` [compound 628], the class was 3 (Class 3: The value of percent of control at 10^−7 M was more than 60% or the value of IC50 was more than 200 nM.). The same measure for `CCc1ccc(NC(=S)NC[C@H]2CC[C@@H](Nc3nc(N(C)C)c4ccccc4n3)CC2)cc1` [compound 629]: 3 (Class 3: The value of percent of control at 10^−7 M was more than 60% or the value of IC50 was more than 200 nM.). Take `CSc1ccccc1NC(=S)NC[C@H]1CC[C@@H](Nc2nc(N(C)C)c3ccccc3n2)CC1` [compound 630]: the class is given as 3 (Class 3: The value of percent of control at 10^−7 M was more than 60% or the value of IC50 was more than 200 nM.). In the case of `CN(C)c1nc(N[C@H]2CC[C@@H](CNC(=S)Nc3ccccc3OC(F)(F)F)CC2)nc2ccccc12` [compound 631], the class is recorded as 2 (Class 2: The value of percent of control at 10^−7 M was from 40% to 60% or the value of IC50 was from 50 nM to 200 nM.). In the case of `CN(C)c1nc(N[C@H]2CC[C@@H](CNC(=S)Nc3ccccc3C(F)(F)F)CC2)nc2ccccc12` [compound 632] it was 3 (Class 3: The value of percent of control at 10^−7 M was more than 60% or the value of IC50 was more than 200 nM.); in that of `CN(C)c1nc(N[C@H]2CC[C@@H](CNC(=S)Nc3ccc(F)c(F)c3F)CC2)nc2ccccc12` [compound 633, N-[(cis-4-{[4-(dimethylamino)quinazolin-2-yl]amino}cyclohexyl)methyl]-N′-(2,3,4-trifluorophenyl)thiourea], 2 (Class 2: The value of percent of control at 10^−7 M was from 40% to 60% or the value of IC50 was from 50 nM to 200 nM.); in that of `CN(C)c1nc(N[C@H]2CC[C@@H](CNC(=S)Nc3cccc(Cl)c3Cl)CC2)nc2ccccc12` [compound 634], 3 (Class 3: The value of percent of control at 10^−7 M was more than 60% or the value of IC50 was more than 200 nM.). Turning to `CN(C)c1nc(N[C@H]2CC[C@@H](CNC(=S)Nc3ccc(F)cc3F)CC2)nc2ccccc12` [compound 635], the class was 3 (Class 3: The value of percent of control at 10^−7 M was more than 60% or the value of IC50 was more than 200 nM.). As to `COc1ccc(OC)c(NC(=S)NC[C@H]2CC[C@@H](Nc3nc(N(C)C)c4ccccc4n3)CC2)c1` [compound 636], the class is on record as 3 (Class 3: The value of percent of control at 10^−7 M was more than 60% or the value of IC50 was more than 200 nM.).

As for `CN(C)c1nc(N[C@H]2CC[C@@H](CNC(=S)Nc3c(F)cccc3F)CC2)nc2ccccc12` [compound 637], the class is on record as 3 (Class 3: The value of percent of control at 10^−7 M was more than 60% or the value of IC50 was more than 200 nM.).
